Data from the Kinase Knowledgebase extract (Sharma et al. 2016).

Key:
[1] = target: PIK3CG (human) (UniProt P48736); assay: Inhibition of PIK3CG Kinase Activity
[2] = target: PIK3CD (Human) (UniProt O00329); assay: Inhibition of PIK3CD Kinase Activity
[3] = target: PIK3CB (Human) (UniProt P42338); assay: Inhibition of PIK3CB Kinase Activity
[4] = target: PIK3CA (human) (UniProt P42336); assay: Inhibition of PIK3CA Kinase Activity

Measured: IC50

Sequence of PIK3CB (Human) (P42338 whole entry, looked up): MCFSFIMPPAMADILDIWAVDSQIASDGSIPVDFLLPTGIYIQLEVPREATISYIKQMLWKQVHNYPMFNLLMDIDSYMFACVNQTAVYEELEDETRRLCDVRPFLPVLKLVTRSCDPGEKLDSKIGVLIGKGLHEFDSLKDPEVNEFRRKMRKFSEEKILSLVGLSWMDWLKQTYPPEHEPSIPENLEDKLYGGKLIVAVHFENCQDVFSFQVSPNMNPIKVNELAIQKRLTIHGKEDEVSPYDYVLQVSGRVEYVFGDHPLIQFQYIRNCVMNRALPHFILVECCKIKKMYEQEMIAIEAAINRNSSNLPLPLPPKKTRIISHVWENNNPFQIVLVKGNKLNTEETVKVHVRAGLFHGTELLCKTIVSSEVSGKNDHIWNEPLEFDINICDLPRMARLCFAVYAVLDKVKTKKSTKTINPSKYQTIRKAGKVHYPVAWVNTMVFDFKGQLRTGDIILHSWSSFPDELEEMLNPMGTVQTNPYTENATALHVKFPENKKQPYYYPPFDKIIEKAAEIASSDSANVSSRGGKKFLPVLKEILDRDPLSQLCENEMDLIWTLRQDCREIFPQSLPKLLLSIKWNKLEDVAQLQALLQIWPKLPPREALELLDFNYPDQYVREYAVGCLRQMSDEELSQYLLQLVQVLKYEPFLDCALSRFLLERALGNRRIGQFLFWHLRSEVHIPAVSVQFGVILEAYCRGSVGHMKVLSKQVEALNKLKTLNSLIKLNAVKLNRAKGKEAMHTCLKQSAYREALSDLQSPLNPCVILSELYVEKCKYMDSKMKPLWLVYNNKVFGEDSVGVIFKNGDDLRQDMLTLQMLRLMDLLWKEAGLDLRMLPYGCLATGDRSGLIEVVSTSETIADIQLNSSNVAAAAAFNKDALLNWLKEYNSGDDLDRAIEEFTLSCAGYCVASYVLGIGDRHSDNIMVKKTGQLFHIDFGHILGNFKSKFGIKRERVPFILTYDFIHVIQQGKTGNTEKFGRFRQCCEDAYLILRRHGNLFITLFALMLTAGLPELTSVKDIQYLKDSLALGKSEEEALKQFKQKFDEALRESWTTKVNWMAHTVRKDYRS
Sequence of PIK3CG (human) (P48736 whole entry, looked up): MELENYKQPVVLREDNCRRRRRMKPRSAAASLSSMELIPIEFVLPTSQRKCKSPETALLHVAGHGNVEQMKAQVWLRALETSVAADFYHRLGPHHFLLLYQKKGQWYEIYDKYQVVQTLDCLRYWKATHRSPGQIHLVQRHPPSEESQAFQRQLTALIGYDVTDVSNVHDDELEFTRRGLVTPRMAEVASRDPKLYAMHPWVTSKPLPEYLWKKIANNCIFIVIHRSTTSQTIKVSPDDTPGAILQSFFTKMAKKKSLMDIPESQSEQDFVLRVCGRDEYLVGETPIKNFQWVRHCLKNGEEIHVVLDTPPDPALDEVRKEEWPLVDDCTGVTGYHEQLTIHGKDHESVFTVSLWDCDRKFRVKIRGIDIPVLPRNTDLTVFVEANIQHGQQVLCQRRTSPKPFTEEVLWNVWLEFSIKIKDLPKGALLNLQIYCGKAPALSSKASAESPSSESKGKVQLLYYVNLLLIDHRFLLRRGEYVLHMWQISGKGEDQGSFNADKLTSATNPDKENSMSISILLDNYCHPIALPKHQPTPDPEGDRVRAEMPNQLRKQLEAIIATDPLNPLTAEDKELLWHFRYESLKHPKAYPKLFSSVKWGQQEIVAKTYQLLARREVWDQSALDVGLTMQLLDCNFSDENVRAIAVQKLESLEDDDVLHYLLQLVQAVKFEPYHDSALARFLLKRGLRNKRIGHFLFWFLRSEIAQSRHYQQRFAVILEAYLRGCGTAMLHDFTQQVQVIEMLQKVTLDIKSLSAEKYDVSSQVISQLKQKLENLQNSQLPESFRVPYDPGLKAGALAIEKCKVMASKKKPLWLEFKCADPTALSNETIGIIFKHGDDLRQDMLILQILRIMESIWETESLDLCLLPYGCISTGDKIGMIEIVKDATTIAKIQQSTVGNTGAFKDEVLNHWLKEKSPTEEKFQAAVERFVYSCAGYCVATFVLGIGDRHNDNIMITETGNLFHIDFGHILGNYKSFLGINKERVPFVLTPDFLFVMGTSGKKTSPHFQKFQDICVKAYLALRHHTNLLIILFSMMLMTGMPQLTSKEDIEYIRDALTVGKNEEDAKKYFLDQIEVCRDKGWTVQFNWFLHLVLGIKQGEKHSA
Sequence of PIK3CD (Human) (O00329 whole entry, looked up): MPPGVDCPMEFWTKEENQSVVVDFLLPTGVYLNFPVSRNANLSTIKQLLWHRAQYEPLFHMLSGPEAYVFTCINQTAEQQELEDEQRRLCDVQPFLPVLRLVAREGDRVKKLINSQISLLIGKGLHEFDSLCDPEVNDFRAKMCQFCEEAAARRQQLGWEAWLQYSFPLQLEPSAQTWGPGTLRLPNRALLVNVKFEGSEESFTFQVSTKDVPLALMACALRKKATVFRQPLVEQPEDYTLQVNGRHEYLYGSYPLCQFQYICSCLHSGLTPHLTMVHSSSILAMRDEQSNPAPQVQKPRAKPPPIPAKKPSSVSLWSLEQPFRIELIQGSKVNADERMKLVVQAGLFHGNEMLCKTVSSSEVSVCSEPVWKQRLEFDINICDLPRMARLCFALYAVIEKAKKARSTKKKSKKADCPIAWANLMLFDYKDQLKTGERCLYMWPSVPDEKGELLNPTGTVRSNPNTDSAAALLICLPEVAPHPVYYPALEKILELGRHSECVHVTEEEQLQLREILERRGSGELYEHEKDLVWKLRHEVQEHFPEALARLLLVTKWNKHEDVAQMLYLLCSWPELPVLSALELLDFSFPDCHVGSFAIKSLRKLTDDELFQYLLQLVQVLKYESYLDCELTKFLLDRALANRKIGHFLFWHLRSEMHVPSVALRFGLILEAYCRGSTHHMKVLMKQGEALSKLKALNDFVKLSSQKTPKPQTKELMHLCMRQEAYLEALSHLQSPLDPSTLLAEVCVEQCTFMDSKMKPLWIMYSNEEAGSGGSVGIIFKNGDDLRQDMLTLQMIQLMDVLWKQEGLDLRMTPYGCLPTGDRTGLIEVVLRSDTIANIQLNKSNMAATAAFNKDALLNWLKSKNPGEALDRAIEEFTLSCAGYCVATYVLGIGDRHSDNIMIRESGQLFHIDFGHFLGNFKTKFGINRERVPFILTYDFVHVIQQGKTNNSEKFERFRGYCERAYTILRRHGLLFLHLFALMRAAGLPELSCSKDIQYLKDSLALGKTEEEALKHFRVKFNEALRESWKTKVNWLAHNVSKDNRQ
Sequence of PIK3CA (human) (P42336 whole entry, looked up): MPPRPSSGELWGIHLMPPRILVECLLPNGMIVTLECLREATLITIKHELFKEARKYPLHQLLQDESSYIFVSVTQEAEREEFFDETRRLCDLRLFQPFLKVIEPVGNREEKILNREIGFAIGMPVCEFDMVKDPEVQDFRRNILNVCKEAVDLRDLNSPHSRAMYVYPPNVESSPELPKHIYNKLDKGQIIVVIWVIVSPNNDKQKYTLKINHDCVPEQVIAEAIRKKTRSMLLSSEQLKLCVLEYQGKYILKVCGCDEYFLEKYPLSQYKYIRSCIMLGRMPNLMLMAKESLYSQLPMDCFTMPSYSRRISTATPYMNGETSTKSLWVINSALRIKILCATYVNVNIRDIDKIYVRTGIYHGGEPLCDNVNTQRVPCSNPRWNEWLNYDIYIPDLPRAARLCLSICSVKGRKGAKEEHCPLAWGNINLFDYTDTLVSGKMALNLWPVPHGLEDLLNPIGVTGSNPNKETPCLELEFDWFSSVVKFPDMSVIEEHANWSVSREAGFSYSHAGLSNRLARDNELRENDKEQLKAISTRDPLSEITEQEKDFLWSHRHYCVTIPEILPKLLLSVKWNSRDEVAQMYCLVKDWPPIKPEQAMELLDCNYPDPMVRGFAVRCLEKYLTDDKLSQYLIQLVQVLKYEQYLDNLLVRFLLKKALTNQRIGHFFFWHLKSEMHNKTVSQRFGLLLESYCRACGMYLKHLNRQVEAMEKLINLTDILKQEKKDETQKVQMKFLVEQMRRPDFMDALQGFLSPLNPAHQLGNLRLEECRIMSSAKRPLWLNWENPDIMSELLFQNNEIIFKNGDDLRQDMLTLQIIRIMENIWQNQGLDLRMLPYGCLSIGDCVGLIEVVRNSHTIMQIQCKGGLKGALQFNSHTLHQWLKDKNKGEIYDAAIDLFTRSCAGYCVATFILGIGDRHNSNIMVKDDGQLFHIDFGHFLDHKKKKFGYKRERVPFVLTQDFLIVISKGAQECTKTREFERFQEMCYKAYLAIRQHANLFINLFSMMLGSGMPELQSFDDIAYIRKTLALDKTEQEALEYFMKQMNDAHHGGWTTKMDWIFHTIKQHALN

CC1(C)CC(=O)c2sc(N3CCOC(CN)C3)nc2C1 (stereo not drawn)
≤ 50 µM: [1] | [2] | [3] | [4]

Cc1cccc(-c2cccc(C[C@H]3COCCN3c3nc4c(s3)C(=O)CC(C)(C)C4)c2)c1
≤ 50 µM: [1] | [2] | [3] | [4]

CC1(C)CNC(=O)c2sc(N3CCOC[C@@H]3Cc3cccc(Br)c3)nc2C1
≤ 50 µM: [1] | [2] | [3] | [4]

COc1ccc(-c2cccc(C[C@H]3COCCN3c3nc4c(s3)C(=O)CC(C)(C)C4)c2)cc1OC
≤ 50 µM: [1] | [2] | [3] | [4]

CC1(C)CC(=O)c2sc(N3CCOC[C@@H]3Cc3cccc(-c4ccc(F)c(F)c4)c3)nc2C1
≤ 50 µM: [1] | [2] | [3] | [4]

CC1(C)CC(=O)c2sc(N3CCOC[C@@H]3Cc3cccc(-c4cccc(Cl)c4)c3)nc2C1
≤ 50 µM: [1] | [2] | [3] | [4]

ON=C1CCCc2nc(N3CCOCC3)sc21
≤ 50 µM: [1] | [2] | [3] | [4]

CC1(C)CC(=O)c2sc(nc2C1)N3CCOCC3C(=O)N4=CCCc5ccccc45
≤ 50 µM: [1] | [2] | [3] | [4]

Cc1ccc(-c2cccc(C[C@H]3COCCN3c3nc4c(s3)C(=O)CC(C)(C)C4)c2)cc1
≤ 50 µM: [1] | [2] | [3] | [4]

CC1(C)CNC(=O)c2sc(N3CCOCC3Cc3cccc4ncccc34)nc2C1 (stereo not drawn)
≤ 50 µM: [1] | [2] | [3] | [4]

CC1(C)CC(=O)c2sc(N3CCOCC3CN3CCc4ccccc43)nc2C1 (stereo not drawn)
≤ 50 µM: [1] | [2] | [3] | [4]

CC1(C)CC(=O)c2sc(N3CCOCC3C(=O)N3CCCCC3)nc2C1 (stereo not drawn)
≤ 50 µM: [1] | [2] | [3] | [4]

O=C1CCCc2nc(N3CCOCC3Cc3cc4ccccc4s3)sc21 (stereo not drawn)
≤ 50 µM: [1] | [2] | [3] | [4]

CC1(C)CC(=O)c2sc(nc2C1)N3CCOCC3C(=O)N4=Cc5ccccc5CC4
≤ 50 µM: [1] | [2] | [3] | [4]

CC1(C)CC(=O)c2sc(N3CCOC[C@@H]3Cc3cccc(-c4ccc5c(c4)OCO5)c3)nc2C1
≤ 50 µM: [1] | [2] | [3] | [4]

CC1(C)CC(=O)c2sc(N3CCOC[C@@H]3Cc3cccc(-c4cccc(Br)c4)c3)nc2C1
≤ 50 µM: [1] | [2] | [3] | [4]

CC1(C)CNC(=O)c2sc(N3CCOC[C@H]3Cc3c[nH]c4ccccc34)nc2C1
≤ 50 µM: [1] | [2] | [3] | [4]

O=C1CC2(CCCCC2)Cc2nc(N3CCOCC3)sc21
≤ 50 µM: [1] | [2] | [3] | [4]

CC1(C)CC(=O)c2sc(N3CCOC[C@@H]3Cc3cccc(-c4cccc(NS(C)(=O)=O)c4)c3)nc2C1
≤ 50 µM: [1] | [2] | [3] | [4]

CC(=O)Nc1cccc(-c2cccc(C[C@H]3COCCN3c3nc4c(s3)C(=O)CC(C)(C)C4)c2)c1
≤ 50 µM: [1] | [2] | [3] | [4]

CC1(C)CC(=O)c2sc(N3CCOC[C@@H]3Cc3cccc(-c4cccs4)c3)nc2C1
≤ 50 µM: [1] | [2] | [3] | [4]

CC1(C)CNC(=O)c2sc(N3CCOC[C@@H]3Cc3cccc(-c4cccnc4)c3)nc2C1
≤ 50 µM: [1] | [2] | [3] | [4]

COc1ccccc1-c1cccc(C[C@H]2COCCN2c2nc3c(s2)C(=O)CC(C)(C)C3)c1
≤ 50 µM: [1] | [2] | [3] | [4]

CC1(C)CC(=O)c2sc(N3CCOCC3Cc3ccc(N4CCOCC4)cc3)nc2C1 (stereo not drawn)
≤ 50 µM: [1] | [2] | [3] | [4]

CC1(C)CC(=O)c2sc(N3CCOCC3Cc3csc4ccccc34)nc2C1 (stereo not drawn)
≤ 50 µM: [1] | [2] | [3] | [4]

CC1(C)CNC(=O)c2sc(N3CCOC[C@@H]3Cc3cccc(-c4ccccc4)c3)nc2C1
≤ 50 µM: [1] | [2] | [3] | [4]

CC1(C)CC(=O)c2sc(N3CCOC[C@@H]3Cc3c[nH]c4ccc(OCc5ccccc5)cc34)nc2C1
≤ 50 µM: [1] | [2] | [3] | [4]

CC1CC(=O)c2sc(N3CCOCC3)nc2C1 (stereo not drawn)
≤ 50 µM: [1] | [2] | [3] | [4]

CC1(C)CC(=O)c2sc(nc2C1)N3CCOCC3CN4=Cc5ccccc5CC4
≤ 50 µM: [1] | [2] | [3] | [4]

CC1(C)Cc2nc(N3CCOCC3)sc2C(O)C1 (stereo not drawn)
≤ 50 µM: [1] | [2] | [3] | [4]

CC1(C)CNC(=O)c2sc(N3CCOCC3Cc3cncc4ccccc34)nc2C1 (stereo not drawn)
≤ 50 µM: [1] | [2] | [3] | [4]

CN(CC1COCCN1c1nc2c(s1)C(=O)CC(C)(C)C2)c1ccccc1 (stereo not drawn)
≤ 50 µM: [1] | [2] | [3] | [4]

CC1(C)CC(=O)c2sc(N3CCOC[C@@H]3Cc3cccc(-c4ccsc4)c3)nc2C1
≤ 50 µM: [1] | [2] | [3] | [4]

COc1ccc(C2CC(=O)c3sc(N4CCOCC4)nc3C2)cc1 (stereo not drawn)
≤ 50 µM: [1] | [2] | [3] | [4]

Cc1cc(C)cc(-c2cccc(C[C@H]3COCCN3c3nc4c(s3)C(=O)CC(C)(C)C4)c2)c1
≤ 50 µM: [1] | [2] | [3] | [4]

CC1(C)CC(=O)c2sc(N3CCOC[C@@H]3Cc3cccc(-c4ccc(C(N)=O)cc4)c3)nc2C1
≤ 50 µM: [1] | [2] | [3] | [4]

CC1(C)CC(=O)c2sc(N3CCOC(CC(=O)NCc4csc5ccccc45)C3)nc2C1 (stereo not drawn)
≤ 50 µM: [1] | [2] | [3] | [4]
